Reference: US11434242B2, “Dopamine-b-hydroxylase inhibitors” (BIAL-PORTELA & Cª, S.A., priority 2017, dated 2022)

Molecular target: T1, Dopamine beta hydroxylase (Homo sapiens, UniProt P09172)
T1 construct: 125 μl of plasma; tissue Instituto Português do Sangue Transplantação; host or cells: human plasma from healthy donors
T1 sequence (P09172 40-617 limits assumed): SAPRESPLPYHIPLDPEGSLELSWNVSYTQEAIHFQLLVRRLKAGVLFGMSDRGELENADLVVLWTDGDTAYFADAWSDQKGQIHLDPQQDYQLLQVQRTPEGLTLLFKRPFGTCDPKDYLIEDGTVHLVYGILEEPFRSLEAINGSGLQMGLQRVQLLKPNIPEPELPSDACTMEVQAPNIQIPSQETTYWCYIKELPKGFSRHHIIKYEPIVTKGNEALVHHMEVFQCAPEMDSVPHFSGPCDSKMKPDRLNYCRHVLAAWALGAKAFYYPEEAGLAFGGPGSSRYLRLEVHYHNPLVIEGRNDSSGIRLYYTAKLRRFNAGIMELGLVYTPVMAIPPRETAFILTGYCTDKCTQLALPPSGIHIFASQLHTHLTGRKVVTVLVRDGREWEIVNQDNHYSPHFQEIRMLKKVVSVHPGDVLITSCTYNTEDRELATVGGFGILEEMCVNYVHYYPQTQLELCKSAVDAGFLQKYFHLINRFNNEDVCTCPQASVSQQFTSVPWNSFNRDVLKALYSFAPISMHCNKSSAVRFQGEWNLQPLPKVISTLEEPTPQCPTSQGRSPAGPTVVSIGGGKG
Assay: Dopamine beta hydroxylase activity in human plasma
Format: biochemical
Settings: for Plasma (0.01 μM), activity in % of control: inhibitor 0.01 μM; for Plasma (0.1 μM), activity in % of control: inhibitor 0.1 μM; for Plasma (1 μM), activity in % of control: inhibitor 1 μM
Description: Furthermore, the ability of a compound to inhibit DβH activity may be assessed in human plasma using the following assay. […]. Dopamine beta hydroxylase activity in human plasma was measured by the method of Nagatsu and Udenfriend (Nagatsu, T. and Udenfriend, S. “Photometric assay of dopamine-μ-hydroxylase activity in human blood.” Clin. Chem. 18(9) 980-983, 1972) with minor modifications. Catalase, N-ethylmaleimide, tyramine, disodium fumarate, pargyline, sodium acetate, ascorbic acid, copper sulfate and octopamine were obtained from Sigma Chemical Co., St. Louis, Mo. 63178. Human plasma samples were obtained from healthy donors (Instituto Português do Sangue Transplantação, Centro Sangue Transplantação, Porto, Portugal). From date of collection, plasma was stored at −80° C. until use. Test compounds were initially prepared in dimethyl sulfoxide at a concentration of 10 mM and diluted in dimethyl sulfoxide to the required concentrations. Test compounds were further diluted in ultrapure water to a concentration 20-fold to that of the final concentration to be tested. Final concentrations of test compounds were 10, 100 and 1000 nM. The various reagents used to make up the incubation buffer were premixed and consisted of the following components: sodium acetate buffer (1 M, pH 5.0, 18 ml), sodium fumarate (0.2 M, 4.5 ml), ascorbic acid (0.2 M, 4.5 ml, freshly prepared), pargyline (20 mM, freshly prepared, 4.5 ml), N-ethylmaleimide (0.2 M, 4.5 ml), catalase (10 000 U/ml, 9 ml), copper sulfate (20 μM, 4.5 ml) and 4.5 ultrapure water. The standard incubation mixture (total volume, 950 μl) contained: 50 μL of compound or vehicle (dimethyl sulfoxide 2%); 700 μL of incubation buffer; 125 μl of plasma (or saline for blank reaction or standard curve); 75 μl of saline. The reaction mixture was placed in water bath, shaking at 37° C. and pre-incubated for 10 minutes. Tyramine (0.5 M) was added and incubation proceeded for 45 minutes. The reaction contents were exposed to air. A sample of enzyme preparation (with 125 μl of plasma) that had been added perchloric acid 2 M at the end of the pre-incubation period was used as blank. A blank for each of the tested compounds was used. For octopamine standard curve, perchloric acid 2 M was replaced by increasing concentrations of octopamine prepared in perchloric acid 2 M (0.5, 1, 2.5, 5, 7.5, 10, 15, 20 μg/ml, final concentration). The incubation was stopped by adding 200 μl of 2 M molar perchloric acid, and the mixture was centrifuged at 9000 g for 5 min. The supernatant fluid (800 μL) was transferred to a column (SPE cartridge ISOLUTE SCX-3, 100 mg) and centrifuged at 150 g for 2 min. The column was washed two more times with 0.5 ml of ultrapure water by centrifuging at 150 g for 2 min. The adsorbed octopamine was eluted twice with 0.3 ml of 4 M ammonium hydroxide by centrifuging at 150 g for 2 min. Octopamine in the eluate was then converted to p-hydroxybenzaldehyde by adding 200 μl of sodium periodate (2%) and incubating for 6 min. Excess periodate was than reduced by adding 200 μl of sodium metabisulfite (10%). Absorbance was measured at […] in a 96-well plate by use of a SpectraMAX plus 384 (Molecular Devices) with software SOFTmax® PRO Software 5.3 spectrophotometer. Absorbance was linear with octopamine concentration from 0.5 to 20 μg/ml. Dopamine beta hydroxylase activity is determined as nmol of octopamine formed/ml of plasma/hour and effect of compounds is presented as % control.
Results are reported in the table below as activity in % of control at the inhibitor concentration tested.

Compound	Plasma (0.01 μM), activity in % of control	Plasma (0.1 μM), activity in % of control	Plasma (1 μM), activity in % of control
Cn1c(CC(=O)NCC2CCCO2)c2n(c1=S)C[C@@H](c1c(F)c(F)cc(F)c1F)C2 (stereo in doubt) [Example 387, 2-((R)-2-methyl-6-(2,3,5,6-tetrafluorophenyl)-3-thioxo-2,5,6,7-tetrahydro-3H-pyrrolo[1,2-c]imidazol-1-yl)-N—(((S)-tetrahydrofuran-2-yl)methyl)acetamide]	92.9 % of control	43.7 % of control	–
Cn1c(CC(=O)NCC2CCCO2)c2n(c1=S)C[C@@H](c1c(F)c(F)cc(F)c1F)C2 (stereo in doubt) [Example 391, 2-((R)-2-methyl-6-(2,3,5,6-tetrafluorophenyl)-3-thioxo-2,5,6,7-tetrahydro-3H-pyrrolo[1,2-c]imidazol-1-yl)-N—(((R)-tetrahydrofuran-2-yl)methyl)acetamide]	83.8 % of control	40.7 % of control	–
O=C(O)Cc1[nH]c(=S)n2c1C[C@@H](c1c(F)ccc(Br)c1F)C2 [Example 12, (S)-2-(6-(3-bromo-2,6-difluorophenyl)-3-thioxo-2,5,6,7-tetrahydro-3H-pyrrolo[1,2-c]imidazol-1-yl)acetic Acid]	–	30.8 % of control	3.3 % of control
O=C(O)Cc1[nH]c(=S)n2c1C[C@H](c1c(F)ccc(Br)c1F)C2 [Example 13, (R)-2-(6-(3-bromo-2,6-difluorophenyl)-3-thioxo-2,5,6,7-tetrahydro-3H-pyrrolo[1,2-c]imidazol-1-yl)acetic Acid]	–	68.0 % of control	13.9 % of control
O=C(O)Cc1[nH]c(=S)n2c1C[C@H](c1cc(F)ccc1F)C2 [Example 14, (R)-2-(6-(2,5-difluorophenyl)-3-thioxo-2,5,6,7-tetrahydro-3H-pyrrolo[1,2-c]imidazol-1-yl)acetic Acid]	–	92.8 % of control	45.6 % of control
O=C(O)Cc1[nH]c(=S)n2c1C[C@H](c1c(F)c(F)cc(F)c1F)C2 [Example 15, (R)-2-(6-(2,3,5,6-tetrafluorophenyl)-3-thioxo-2,5,6,7-tetrahydro-3H-pyrrolo[1,2-c]imidazol-1-yl)acetic Acid]	–	66.0 % of control	11.4 % of control
O=C(O)Cc1[nH]c(=S)n2c1C[C@@H](c1cc(Br)ccc1F)C2 [Example 16, (S)-2-(6-(5-bromo-2-fluorophenyl)-3-thioxo-2,5,6,7-tetrahydro-3H-pyrrolo[1,2-c]imidazol-1-yl)acetic Acid]	–	72.9 % of control	12.7 % of control
O=C(O)Cc1[nH]c(=S)n2c1C[C@H](c1cc(Cl)ccc1F)C2 [Example 17, (R)-2-(6-(5-chloro-2-fluorophenyl)-3-thioxo-2,5,6,7-tetrahydro-3H-pyrrolo[1,2-c]imidazol-1-yl)acetic Acid]	–	79.0 % of control	32.2 % of control
O=C(O)Cc1[nH]c(=S)n2c1C[C@H](c1c(F)cccc1F)C2 [Example 18, (R)-2-(6-(2,6-difluorophenyl)-3-thioxo-2,5,6,7-tetrahydro-3H-pyrrolo[1,2-c]imidazol-1-yl)acetic Acid]	–	81.0 % of control	19.8 % of control
CS(=O)(=O)NC(=O)Cc1[nH]c(=S)n2c1C[C@@H](c1c(F)ccc(Br)c1F)C2 [Example 20, (S)-2-(6-(3-bromo-2,6-difluorophenyl)-3-thioxo-2,5,6,7-tetrahydro-3H-pyrrolo[1,2-c]imidazol-1-yl)-N-(methylsulfonyl)acetamide]	–	31.0 % of control	2.6 % of control
CS(=O)(=O)NC(=O)Cc1[nH]c(=S)n2c1C[C@@H](c1cc(Br)ccc1F)C2 [Example 21, (S)-2-(6-(5-bromo-2-fluorophenyl)-3-thioxo-2,5,6,7-tetrahydro-3H-pyrrolo[1,2-c]imidazol-1-yl)-N-(methylsulfonyl)acetamide]	–	69.2 % of control	16.7 % of control
O=C(Cc1[nH]c(=S)n2c1C[C@H](c1c(F)ccc(Br)c1F)C2)NC1CCOC1=O (stereo partly drawn) [Example 22, 2-((R)-6-(3-bromo-2,6-difluorophenyl)-3-thioxo-2,5,6,7-tetrahydro-3H-pyrrolo[1,2-c]imidazol-1-yl)-N-(2-oxotetrahydrofuran-3-yl)acetamide]	–	45.1 % of control	4.4 % of control
CS(=O)(=O)NC(=O)Cc1[nH]c(=S)n2c1C[C@H](c1c(F)c(F)cc(F)c1F)C2 [Example 23, (R)—N-(methylsulfonyl)-2-(6-(2,3,5,6-tetrafluorophenyl)-3-thioxo-3,5,6,7-tetrahydro-2H-pyrrolo[1,2-c]imidazol-1-yl)acetamide]	–	56.6 % of control	8.8 % of control
CS(=O)(=O)NC(=O)Cc1[nH]c(=S)n2c1C[C@H](c1cc(F)ccc1F)C2 [Example 24, (R)-2-(6-(2,5-difluorophenyl)-3-thioxo-2,5,6,7-tetrahydro-3H-pyrrolo[1,2-c]imidazol-1-yl)-N-(methylsulfonyl)acetamide]	–	100.2 % of control	45.6 % of control
CCOC(=O)CNC(=O)Cc1[nH]c(=S)n2c1C[C@H](c1c(F)c(F)cc(F)c1F)C2 [Example 25, Ethyl (R)-(2-(6-(2,3,5,6-tetrafluorophenyl)-3-thioxo-2,5,6,7-tetrahydro-3H-pyrrolo[1,2-c]imidazol-1-yl)acetyl)glycinate]	–	71.3 % of control	17.6 % of control
C[C@H](NC(=O)Cc1[nH]c(=S)n2c1C[C@H](c1c(F)c(F)cc(F)c1F)C2)C(N)=O [Example 26, (S)-2-(2-((R)-6-(2,3,5,6-tetrafluorophenyl)-3-thioxo-2,5,6,7-tetrahydro-3H-pyrrolo[1,2-c]imidazol-1-yl)acetamido)propanamide]	–	64.0 % of control	18.2 % of control
N#CCNC(=O)Cc1[nH]c(=S)n2c1C[C@H](c1c(F)c(F)cc(F)c1F)C2 [Example 27, (R)—N-(cyanomethyl)-2-(6-(2,3,5,6-tetrafluorophenyl)-3-thioxo-2,5,6,7-tetrahydro-3H-pyrrolo[1,2-c]imidazol-1-yl)acetamide]	–	51.6 % of control	7.6 % of control
